Measurements published in US20030180396A1, “Method of effecting phosphorylation in eucaryotic cells using thiamine triphosphate” (INSTITUT PASTEUR, priority 1999, published 2003).
“Also recorded” adds a separate entry of the source. Like-named read-outs stand apart in the source and are kept apart here.

How the values were obtained:
[1] = system: TTP-dependent kinase(s) (TTP-kinase, TTP-43K-kinase); assay: TTP-dependent phosphorylation of 43K rapsyn by endogenous kinase(s) in nAChR-rich postsynaptic membranes; assay type: biochemical, Torpedo marmorata; conditions: for IC50: FIG. 3A, preincubation with cold triphosphate, read-out: IC50, inhibition of TTP-dependent phosphorylation of 43K rapsyn; for Kd: read-out: KD (apparent dissociation constant) of 43K rapsyn phosphorylation
Description: (§1) nAChR-rich postsynaptic membranes (nAChR-membranes) were prepared from electric organs excised from freshly killed Torpedo marmorata (T.m.) (Biologie Marine, Arcachon) (3, 16).
(§2) [γ-^32P]-TTP (^32P-TTP) was synthesized (27). nAChR-membranes were phosphorylated with (7-8000 Ci/mol) ^32P-TTP or ^32P-ATP in 50 mM Tris-HCl pH 7.5, 5-15 mM MgCl2, 0.08% CHAPS, inhibitors of proteases at 4°-20° C. for 60-90 minutes. […] Coomassie blue staining was performed when necessary. Where specified, nAChR-membranes were treated with 5-20 mM diethylpyrocarbonate (DEPC.) (28) in 50 mM Na phosphate buffer pH 6.0 and 7.4 (20 min, 16° C.), prior to incubation with ^32P-TTP.
A purified extract containing the kinase responsible for the TTP dependent phosphorylation of histidine residues on rapsyn, is preincubated with increasing concentration of products inhibiting the enzymatic activity of said kinase (FIG. 3A).

[2] = system: endogenous protein kinase A (PKA); assay: ATP-dependent phosphorylation of 43K rapsyn in nAChR-rich postsynaptic membranes; assay type: biochemical, Torpedo marmorata
Description: as §1, §2

[3] = molecular target: T1, Nucleoside diphosphate kinase (NDPK) (Dictyostelium discoideum, UniProt P22887); assay: Phosphorylation of NDPK with 32P-ATP or 32P-TTP as phosphodonor; assay type: biochemical; conditions: data not shown
T1 sequence (P22887 1-155): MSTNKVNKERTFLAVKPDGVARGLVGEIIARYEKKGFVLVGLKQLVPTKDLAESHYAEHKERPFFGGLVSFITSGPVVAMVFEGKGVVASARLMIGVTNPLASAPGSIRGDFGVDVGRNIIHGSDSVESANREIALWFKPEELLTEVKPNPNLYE
Description: NDPK is a highly conserved enzyme which plays a key role in growth and metastasis control (47). As the enzyme autophosphorylates histidine and presents a broad specificity, phosphorylation was assayed with TTP.

mouse brain membranes = conditions: FIG. 8
[4] = Chemical stability of the phosphate links of phosphorylated 43K rapsyn (TCA / KOH treatment); assay type: physicochemical, Torpedo marmorata; conditions: for P-aa stability (base): PVDF blot + base; for P-aa stability (acid): SDS-PAGE gel + acid
Description: For acid treatment, SDS-PAGE gels containing ^32P-ATP- or ^32P-TTP-treated membranes were cut and incubated with Tris buffer or 16% TCA at 90° C. (29, 30), washed, and analyzed. Equivalent amounts of 43K rapsyn were ensured by Coomassie blue staining. For base treatment, ^32P-labeled membranes were resolved by SDS-PAGE, electroblotted on polyvinylidene difluoride membrane (PVDF). Blots were dried at 55° C. to minimize protein loss, wet in methanol, washed with H2O, cut and incubated in water or 1N KOH at 46° C. and analyzed.

With `Nc1ncnc2c1nc(Sc1ccc(Cl)cc1)n2[C@@H]1O[C@@H]2COP(=O)([O-])O[C@H]2[C@H]1O.[Na+]` [8-CPT-cAMP, Adenosine 3′-5′-cyclic monophosphate, 8-(4-Chlorophenylthio)-sodium salt] the “effect on TTP-dependent phosphorylation of 43K rapsyn / TTP-kinase activity (in words)” value [1] was “did not drastically alter”.

With `Nc1ncnc2c1ncn2[C@@H]1O[C@H](COP(=O)(O)OP(=O)(O)OP(=O)(O)O)[C@@H](O)[C@H]1O` [ATP, adenosine triphosphate] the “effect on 32P-ATP-dependent 43K rapsyn phosphorylation (in words)” value [2] was “specifically inhibited”, the “effect on TTP-dependent phosphorylation of 43K rapsyn / TTP-kinase activity (in words)” value [1] was “specifically inhibited” and the IC50 [1] was about 500 µM.

With `Nc1ccn([C@@H]2O[C@H](COP(=O)(O)OP(=O)(O)OP(=O)(O)O)[C@@H](O)[C@H]2O)c(=O)n1` [CTP] the “effect on TTP-dependent phosphorylation of 43K rapsyn / TTP-kinase activity (in words)” value [1] was “inhibits poorly”.

With `CCOC(=O)OC(=O)OCC` [DEPC, diethylpyrocarbonate] the “43K rapsyn phosphorylation, % 32P” value ([1]; membranes pretreated with 5-20 mM DEPC, versus 100±19% in mock membranes) was 20±2%.

In the case of `O[C@@H](CS)[C@@H](O)CS` [DTT], the “effect on TTP-dependent phosphorylation of 43K rapsyn / TTP-kinase activity (in words)” value [1] is reported as “partially inhibited” and the “% inhibition of TTP-kinase activity” value ([1]; 10 mM) is reported as 30-40%.

For `CN(C)CCCn1cc(C2=C(c3c[nH]c4ccccc34)C(=O)NC2=O)c2ccccc21` [GFX, bisindolylmaleimide I], the “effect on TTP-dependent phosphorylation of 43K rapsyn / TTP-kinase activity (in words)” value [1] was “did not drastically alter”.

Work on `Nc1nc2c(ncn2[C@@H]2O[C@H](COP(=O)(O)OP(=O)(O)OP(=O)(O)O)[C@@H](O)[C@H]2O)c(=O)[nH]1` [GTP] yielded an IC50 [1] of about 1000 µM.

For `CC1CNCCN1S(=O)(=O)c1cccc2cnccc12` (centres unmarked) [H7], the “effect on TTP-dependent phosphorylation of 43K rapsyn / TTP-kinase activity (in words)” value [1] was “did not drastically alter”.

With `O=S(=O)(NCCNC/C=C/c1ccc(Br)cc1)c1cccc2cnccc12` [H89] the “effect on TTP-dependent phosphorylation of 43K rapsyn / TTP-kinase activity (in words)” value [1] was “did not drastically alter”.

With `CN([C@@H](Cc1ccc(OS(=O)(=O)c2cccc3cnccc23)cc1)C(=O)N1CCN(c2ccccc2)CC1)S(=O)(=O)c1cccc2cnccc12` [KN62] the “effect on TTP-dependent phosphorylation of 43K rapsyn / TTP-kinase activity (in words)” value [1] was “did not drastically alter”.

In the case of `CCCCCCOC(=O)[C@]1(O)C[C@@H]2O[C@@]1(C)n1c3ccccc3c3c4c(c5c6ccccc6n2c5c31)C(=O)NC4` [KT5720], the “effect on TTP-dependent phosphorylation of 43K rapsyn / TTP-kinase activity (in words)” value [1] is reported as “did not drastically alter”.

For `O=S(=O)(c1cccc2c(I)cccc12)N1CCCNCC1` [ML7], the “effect on TTP-dependent phosphorylation of 43K rapsyn / TTP-kinase activity (in words)” value [1] was “did not drastically alter”.

For `[Mg+2]` [Mg^2+], the “effect on TTP-dependent phosphorylation of 43K rapsyn / TTP-kinase activity (in words)” value [1] was “enhanced”.

In the case of `CCCCCCCCCCCCCC(=O)O[C@@H]1[C@@H](C)[C@@]2(O)[C@@H](C=C(CO)C[C@]3(O)C(=O)C(C)=C[C@@H]23)[C@@H]2C(C)(C)[C@]12OC(C)=O` [TPA, phorbol-12-myristate-13-acetate], the “effect on TTP-dependent phosphorylation of 43K rapsyn / TTP-kinase activity (in words)” value [1] is reported as “did not drastically alter”.

With `[Zn+2]` [Zn^2+] the “effect on TTP-dependent phosphorylation of 43K rapsyn / TTP-kinase activity (in words)” value [1] was “inhibited; also recorded: prevented” and the “% inhibition of TTP-dependent phosphorylation of 43K rapsyn” value ([1]; 0.5-3 mM Zn2+, 8 μM 32P-TTP, Mg2+ independent) was about 70%.

For `Nc1ncnc2c1ncn2[C@@H]1O[C@H](COP(=O)(O)OP(=O)(O)O[32P](=O)(O)O)[C@@H](O)[C@H]1O` [^32P-ATP, [γ-^32P]-ATP, reference compound], the “phosphorylation of NDPK by the phosphodonor” value [3] was “strongly phosphorylated” and the “concentration saturating 43K rapsyn phosphorylation” value ([2]; not yet saturated) was over 200 µM.

For `Cc1ncc(C[n+]2csc(CCOP(=O)(O)OP(=O)(O)O[32P](=O)([O-])O)c2C)c(N)n1` [^32P-TTP, [γ-^32P]-TTP], the “phosphorylation of NDPK by the phosphodonor” value [3] was “not” and the “concentration saturating 43K rapsyn phosphorylation” value ([1]; FIG. 3C) was 25 to 50 µM.

In the case of `COc1ccc(C[C@H]2NC[C@H](O)[C@H]2OC(C)=O)cc1` [anisomycin], the “effect on TTP-dependent phosphorylation of 43K rapsyn / TTP-kinase activity (in words)” value [1] is reported as “did not drastically alter”.

In the case of `Nc1nc2c(ncn2[C@@H]2O[C@@H]3COP(=O)(O)O[C@H]3[C@H]2O)c(=O)[nH]1` [cGMP], the “effect on TTP-dependent phosphorylation of 43K rapsyn / TTP-kinase activity (in words)” value [1] is reported as “did not drastically alter”.

For `Clc1ccc(C(c2ccc(Cl)cc2)n2cc[n+](CC(OCc3ccc(Cl)cc3Cl)c3ccc(Cl)cc3Cl)c2)cc1` (centres unmarked) [calmidazolium], the “effect on TTP-dependent phosphorylation of 43K rapsyn / TTP-kinase activity (in words)” value [1] was “did not drastically alter”.

For `O=c1c(-c2ccc(O)cc2)coc2cc(O)cc(O)c12` [genisterin, genistein], the “effect on TTP-dependent phosphorylation of 43K rapsyn / TTP-kinase activity (in words)” value [1] was “did not drastically alter”.

With `CN[C@@H]1C[C@H]2O[C@@](C)([C@@H]1OC)n1c3ccccc3c3c4c(c5c6ccccc6n2c5c31)C(=O)NC4` [staurosporine] the “effect on TTP-dependent phosphorylation of 43K rapsyn / TTP-kinase activity (in words)” value [1] was “did not drastically alter”.

In the case of TNF-α, the “effect on TTP-dependent phosphorylation of 43K rapsyn / TTP-kinase activity (in words)” value [1] is reported as “did not drastically alter”.

For calphostin, the “effect on TTP-dependent phosphorylation of 43K rapsyn / TTP-kinase activity (in words)” value [1] was “did not drastically alter”.

For thiamine triphosphate [TTP], the “proteins phosphorylated in mouse brain membranes” value (mouse brain membranes) was “phosphorylated very few”, the “effect on 32P-ATP-dependent 43K rapsyn phosphorylation (in words)” value [2] was “specifically inhibited” and the “effect on TTP-dependent phosphorylation of 43K rapsyn / TTP-kinase activity (in words)” value [1] was “specifically inhibited”. The IC50 [1] was about 40 µM, the Kd ([1]; FIG. 3C, dose dependent and saturable) was 5 to 10 µM and the Kd ([1]; one membrane preparation) was about 25 µM.

B1: 43K-rapsyn/ATP: 43K rapsyn phosphorylated with ^32P-ATP (protein, UniProt Q13702 2-412, looked up)
43 kDa receptor-associated …: GQDQTKQQIEKGLQLYQSNQTEKALQVWTKVLEKSSDLMGRFRVLGCLVTAHSEMGRYKEMLKFAVVQIDTARELEDADFLLESYLNLARSNEKLCEFHKTISYCKTCLGLPGTRAGAQLGGQVSLSMGNAFLGLSVFQKALESFEKALRYAHNNDDAMLECRVCCSLGSFYAQVKDYEKALFFPCKAAELVNNYGKGWSLKYRAMSQYHMAVAYRLLGRLGSAMECCEESMKIALQHGDRPLQALCLLCFADIHRSRGDLETAFPRYDSAMSIMTEIGNRLGQVQALLGVAKCWVARKALDKALDAIERAQDLAEEVGNKLSQLKLHCLSESIYRSKGLQRELRAHVVRFHECVEETELYCGLCGESIGEKNSRLQALPCSHIFHLRCLQNNGTRSCPNCRRSSMKPGFV
modifications: 32P-phosphorylated (ATP)
notes: 43K rapsyn phosphorylated with ^32P-ATP
With B1 the “P-aa stability (base)” value [4] was “base-labile”, the “P-aa stability (base)” value ([4]; listed as ATP-^32P-43K rapsyn) was “alkaline labile” and the “% 32P remaining” value ([4]; PVDF blot, 1 N KOH 46° C. 40 min, relative to control) was 41 ± 1%. The “% 32P remaining” value ([4]; PVDF blot, 1 N KOH 46° C. 120 min, relative to control) was 18 ± 2%, the “% 32P remaining” value ([4]; PVDF blot, 1 N KOH 46° C. 120 min, relative to control, listed as ATP-^32P-43K rapsyn) was 18±2% and the “P-aa stability (acid)” value [4] was “acid-stable”. For the same molecule, the “P-aa stability (acid)” value ([4]; listed as ATP-^32P-43K rapsyn) was “acid stable”, the “% 32P remaining” value ([4]; SDS-PAGE gel, 16% TCA, 90° C. 5 min, relative to control) was 79 ± 5% and the “% 32P remaining” value ([4]; SDS-PAGE gel, 16% TCA, 90° C. 5 min, relative to control, listed as ATP-^32P-43K rapsyn) was 79±5%. The “% 32P remaining” value ([4]; SDS-PAGE gel, 16% TCA, 90° C. 10 min, relative to control) was 49 ± 9%, the “% 32P remaining” value ([4]; SDS-PAGE gel, 16% TCA, 90° C. 10 min, relative to control, listed as ATP-^32P-43K rapsyn) was 49±9% and the Paa/pH-stability ([4]; putative Paa listed in both acid- and base-stability analysis (ref. 45)) was “P-Ser and/or P-Thr”.

B2: 43K-rapsyn/TTP: 43K rapsyn phosphorylated with ^32P-TTP (protein, UniProt Q13702 2-412, looked up)
43 kDa receptor-associated …: GQDQTKQQIEKGLQLYQSNQTEKALQVWTKVLEKSSDLMGRFRVLGCLVTAHSEMGRYKEMLKFAVVQIDTARELEDADFLLESYLNLARSNEKLCEFHKTISYCKTCLGLPGTRAGAQLGGQVSLSMGNAFLGLSVFQKALESFEKALRYAHNNDDAMLECRVCCSLGSFYAQVKDYEKALFFPCKAAELVNNYGKGWSLKYRAMSQYHMAVAYRLLGRLGSAMECCEESMKIALQHGDRPLQALCLLCFADIHRSRGDLETAFPRYDSAMSIMTEIGNRLGQVQALLGVAKCWVARKALDKALDAIERAQDLAEEVGNKLSQLKLHCLSESIYRSKGLQRELRAHVVRFHECVEETELYCGLCGESIGEKNSRLQALPCSHIFHLRCLQNNGTRSCPNCRRSSMKPGFV
modifications: 32P-phosphorylated (TTP)
notes: 43K rapsyn phosphorylated with ^32P-TTP
In the case of B2, the Paa/pH-stability [4] is reported as “P-His and/or P-Lys” and the “% 32P remaining” value ([4]; 40 min) is reported as 96 ± 3%.
